Read-outs that look alike come from different tables or passages of the source.
Experiments:
[1] = system: Key Broadleaf Weed and Crop Species; assay: Post-emergent Test II herbicidal activity (Table 5); type: in vivo; conditions: post-emergence, 336 h, 14 days after application; for pest or weed control at 66 g/ha: application rate 66 g ai/ha; for pest or weed control at 132 g/ha: application rate 132 g ai/ha
How it was run: (§1)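 Compounds, dissolved in 97:3 acetone/DMSO and diluted into an aqueous carrier containing crop oil concentrate and Triton X-155, are applied over the top of young plants at 187 L/ha. Injury is scored visually at 14 d, 0% meaning no effect and 100% complete kill.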

[2] = system: Key Grass and Sedge Weeds as well as Grass Crops; assay: Post-emergent Test II herbicidal activity (Table 6); type: in vivo; conditions: post-emergence, 336 h; for pest or weed control at 66 g/ha: 66 g ai/ha; for pest or weed control at 132 g/ha: 132 g ai/ha
How it was run: as §1

[3] = ABUTH: velvetleaf (Abutilon theophrasti), read-out: Visual Growth Reduction (%) 14 Days After Application, ABUTH
[4] = AMARE: redroot pigweed (Amaranthus retroflexus), read-out: Visual Growth Reduction (%) 14 Days After Application, AMARE
[5] = BRSNN: oilseed-rape, canola (Brassica napus), read-out: Visual Growth Reduction (%) 14 Days After Application, BRSNN
[6] = CHEAL: lambsquarters (Chenopodium album), read-out: Visual Growth Reduction (%) 14 Days After Application, CHEAL
[7] = EPHHL: wild poinsettia (Euphorbia heterophylla), read-out: Visual Growth Reduction (%) 14 Days After Application, EPHHL
[8] = HELAN: sunflower (Helianthus annuus), read-out: Visual Growth Reduction (%) 14 Days After Application, HELAN
[9] = VIOTR: wild pansy (Viola tricolor), read-out: Visual Growth Reduction (%) 14 Days After Application, VIOTR
[10] = CYPES: yellow nutsedge (Cyperus esculentus), read-out: Visual Growth Reduction (%) 14 Days After Application, CYPES
[11] = DIGSA: crabgrass (Digitaria sanguinalis), read-out: Visual Growth Reduction (%) 14 Days After Application, DIGSA
[12] = ECHCG: barnyardgrass (Echinochloa crus-galli), read-out: Visual Growth Reduction (%) 14 Days After Application, ECHCG
[13] = ORYSA: rice (Oryza sativa), crop, read-out: Visual Growth Reduction (%) 14 Days After Application, ORYSA
[14] = SETFA: giant foxtail (Setaria faberi), read-out: Visual Growth Reduction (%) 14 Days After Application, SETFA
[15] = SORVU: grain sorghum (Sorghum vulgare), read-out: Visual Growth Reduction (%) 14 Days After Application, SORVU
[16] = TRZSS (wheat, Triticum aestivum), crop, read-out: Visual Growth Reduction (%) 14 Days After Application, TRZSS
[17] = ZEAMX: maize, corn (Zea mays), crop, read-out: Visual Growth Reduction (%) 14 Days After Application, ZEAMX

SMILES: COC(=O)c1nc(-c2ccc(C)c(F)c2)c(F)c(N)c1Cl [Compound 213]
- pest or weed control at 66 g/ha [1, 3]: 95 to 100%
- pest or weed control at 132 g/ha [1, 3]: 95 to 100%
- pest or weed control at 66 g/ha [1, 4]: 95 to 100%
- pest or weed control at 132 g/ha [1, 4]: 95 to 100%
- pest or weed control at 66 g/ha [1, 5]: 85 to 94%
- pest or weed control at 132 g/ha [1, 5]: 85 to 94%
- pest or weed control at 66 g/ha [1, 6]: 95 to 100%
- pest or weed control at 132 g/ha [1, 6]: 95 to 100%
- pest or weed control at 66 g/ha [1, 7]: 95 to 100%
- pest or weed control at 132 g/ha [1, 7]: 95 to 100%
- pest or weed control at 66 g/ha [1, 8]: 95 to 100%
- pest or weed control at 132 g/ha [1, 8]: 95 to 100%
- pest or weed control at 66 g/ha [1, 9]: 0 to 29%
- pest or weed control at 132 g/ha [1, 9]: 0 to 29%
- pest or weed control at 66 g/ha [2, 10]: 0 to 29%
- pest or weed control at 132 g/ha [2, 10]: 45 to 59%
- pest or weed control at 66 g/ha [2, 11]: 0 to 29%
- pest or weed control at 132 g/ha [2, 11]: 0 to 29%
- pest or weed control at 66 g/ha [2, 12]: 85 to 94%
- pest or weed control at 132 g/ha [2, 12]: 85 to 94%
- pest or weed control at 66 g/ha [2, 13]: 0 to 29%
- pest or weed control at 132 g/ha [2, 13]: 0 to 29%
- pest or weed control at 66 g/ha [2, 14]: 0 to 29%
- pest or weed control at 132 g/ha [2, 14]: 0 to 29%
- pest or weed control at 66 g/ha [2, 15]: 75 to 84%
- pest or weed control at 132 g/ha [2, 15]: 95 to 100%
- pest or weed control at 66 g/ha [2, 16]: 0 to 29%
- pest or weed control at 132 g/ha [2, 16]: 0 to 29%
- pest or weed control at 66 g/ha [2, 17]: 60 to 74%
- pest or weed control at 132 g/ha [2, 17]: 75 to 84%
- melting point: 127 °C

— patent US9113629B2, “4-amino-6-(4-substituted-phenyl)-picolinates and 6-amino-2-(4-substituted-phenyl)-pyrimidine-4-carboxylates and their use as herbicides” (DOW AGROSCIENCES LLC, priority 2013, dated 2015)
